# Where two headings read alike, the source gives them in different places.
# Columns and labels:
# Test in all cases: Test C pre/postemergence
# Assay type in all cases: in vivo
# [1] = test system: bermudagrass (Cynodon dactylon); conditions: Cynodon dactylon; for pest or weed control at 31 g/ha: 31 g ai/ha; for pest or weed control at 62 g/ha: 62 g ai/ha; for pest or weed control at 125 g/ha: 125 g ai/ha; for pest or weed control at 125 g/ha / pest or weed control at 250 g/ha: scale 0 to 100; for pest or weed control at 250 g/ha: 250 g ai/ha
# How it was run: (§1)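 Greenhouse herbicide screen, visual readout. Compound in solvent/surfactant applied preemergence at planting or postemergence to 1- to 4-leaf plants; assessed at 12–14 days on a 0–100 control scale.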
# [2] = test system: cocklebur (Xanthium strumarium); conditions: Xanthium strumarium; for pest or weed control at 31 g/ha: 31 g ai/ha; for pest or weed control at 62 g/ha: 62 g ai/ha; for pest or weed control at 125 g/ha: 125 g ai/ha; for pest or weed control at 250 g/ha: 250 g ai/ha
# How it was run: as §1
# [3] = test system: common (oilseed) sunflower (Helianthus annuus); conditions: Helianthus annuus, pre-emergence, Preemergence, read-out: Plant response rating, Sunflower
# How it was run: as §1
# [4] = test system: common ragweed (Ambrosia elatior); conditions: Ambrosia artemisiifolia; for pest or weed control at 31 g/ha: 31 g ai/ha; for pest or weed control at 62 g/ha: 62 g ai/ha; for pest or weed control at 125 g/ha: 125 g ai/ha; for pest or weed control at 250 g/ha: 250 g ai/ha
# How it was run: as §1
# [5] = test system: eastern black nightshade (Solanum ptycanthum); conditions: Solanum, pre-emergence, Preemergence, read-out: Plant response rating, Nightshade
# How it was run: as §1
# [6] = test system: goosegrass (Eleusine indica); conditions: Eleusine indica; for pest or weed control at 31 g/ha: 31 g ai/ha; for pest or weed control at 62 g/ha: 62 g ai/ha; for pest or weed control at 125 g/ha: 125 g ai/ha; for pest or weed control at 250 g/ha: 250 g ai/ha
# How it was run: as §1
# [7] = test system: johnsongrass (Sorghum halepense); conditions: Sorghum halepense, post-emergence, Postemergence
# How it was run: as §1
# [8] = post-emergence, Postemergence, read-out: Plant response rating, Bermudagrass
# [9] = pre-emergence, Preemergence, scale 0 to 100, 0 no effect, 100 complete control, read-out: Plant response rating, Bermudagrass
# [10] = pre-emergence, Preemergence, read-out: Plant response rating, Bermudagrass
# [11] = post-emergence, Postemergence, scale 0 to 100 (0 no effect, 100 complete control), read-out: Cocklebur plant response rating
# [12] = pre-emergence, Preemergence, scale 0 to 100, 0 no effect, 100 complete control, read-out: Plant response rating, Cocklebur
# [13] = pre-emergence, Preemergence, scale 0 to 100, read-out: Plant response rating, Cocklebur
# [14] = 31 g ai/ha, scale 0 to 100, 0 no effect, 100 complete control
# [15] = 62 g ai/ha, scale 0 to 100, 0 no effect, 100 complete control
# [16] = post-emergence, Postemergence, scale 0 to 100 (0 no effect, 100 complete control), read-out: Ragweed plant response rating
# [17] = pre-emergence, Preemergence, scale 0 to 100, 0 no effect, 100 complete control, read-out: Plant response rating, Ragweed
# [18] = pre-emergence, Preemergence, scale 0 to 100, read-out: Plant response rating, Ragweed
# [19] = post-emergence, Postemergence, scale 0 to 100 (0 no effect, 100 complete control), read-out: Goosegrass plant response rating
# [20] = pre-emergence, Preemergence, scale 0 to 100, 0 no effect, 100 complete control, read-out: Plant response rating, Goosegrass
# [21] = pre-emergence, Preemergence, scale 0 to 100, read-out: Plant response rating, Goosegrass
smiles,measurement,setting,value
COC(=O)c1nc(C(C)C)nc(N)c1Br [Compound 3],pest or weed control at 31 g/ha,"[1]; post-emergence, Postemergence, read-out: Plant response rating (scale of 0 to 100), Bermudagrass",0%
same,pest or weed control at 62 g/ha,"[1]; post-emergence, Postemergence, scale 0 to 100 (0 no effect, 100 complete control), read-out: Bermudagrass plant response rating",0%
same,pest or weed control at 125 g/ha,[1]; [8],0%
same,pest or weed control at 250 g/ha,[1]; [8],45%
same,pest or weed control at 31 g/ha,[1]; [9],0%
same,pest or weed control at 62 g/ha,[1]; [9],0%
same,pest or weed control at 125 g/ha,[1]; [10],0%
same,pest or weed control at 250 g/ha,[1]; [10],0%
same,pest or weed control at 31 g/ha,"[2]; post-emergence, Postemergence, read-out: Plant response rating (scale of 0 to 100), Cocklebur",60%
same,pest or weed control at 62 g/ha,[2]; [11],65%
same,pest or weed control at 125 g/ha,[2]; [11],75%
same,pest or weed control at 250 g/ha,"[2]; post-emergence, Postemergence, scale 0 to 100, read-out: Plant response rating, Cocklebur",90%
same,pest or weed control at 31 g/ha,[2]; [12],0%
same,pest or weed control at 62 g/ha,[2]; [12],30%
same,pest or weed control at 125 g/ha,[2]; [13],55%
same,pest or weed control at 250 g/ha,[2]; [13],70%
same,pest or weed control at 31 g/ha,[3]; [14],0%
same,pest or weed control at 62 g/ha,[3]; [15],0%
same,pest or weed control at 125 g/ha,"[3]; 125 g ai/ha, scale 0 to 100",0%
same,pest or weed control at 250 g/ha,"[3]; 250 g ai/ha, scale 0 to 100",0%
same,pest or weed control at 31 g/ha,"[4]; post-emergence, Postemergence, read-out: Plant response rating (scale of 0 to 100), Ragweed",55%
same,pest or weed control at 62 g/ha,[4]; [16],75%
same,pest or weed control at 125 g/ha,[4]; [16],80%
same,pest or weed control at 250 g/ha,"[4]; post-emergence, Postemergence, scale 0 to 100, read-out: Plant response rating, Ragweed",95%
same,pest or weed control at 31 g/ha,[4]; [17],0%
same,pest or weed control at 62 g/ha,[4]; [17],0%
same,pest or weed control at 125 g/ha,[4]; [18],0%
same,pest or weed control at 250 g/ha,[4]; [18],45%
same,pest or weed control at 31 g/ha,[5]; [14],0%
same,pest or weed control at 62 g/ha,[5]; [15],0%
same,pest or weed control at 125 g/ha,"[5]; 125 g ai/ha, scale 0 to 100",0%
same,pest or weed control at 250 g/ha,"[5]; 250 g ai/ha, scale 0 to 100",20%
same,pest or weed control at 31 g/ha,"[6]; post-emergence, Postemergence, read-out: Plant response rating (scale of 0 to 100), Goosegrass",0%
same,pest or weed control at 62 g/ha,[6]; [19],0%
same,pest or weed control at 125 g/ha,[6]; [19],0%
same,pest or weed control at 250 g/ha,"[6]; post-emergence, Postemergence, scale 0 to 100, read-out: Plant response rating, Goosegrass",0%
same,pest or weed control at 31 g/ha,[6]; [20],0%
same,pest or weed control at 62 g/ha,[6]; [20],0%
same,pest or weed control at 125 g/ha,[6]; [21],0%
same,pest or weed control at 250 g/ha,[6]; [21],0%
same,pest or weed control at 31 g/ha,"[7]; 31 g ai/ha, read-out: Plant response rating (scale of 0 to 100), Johnsongrass",0%
same,pest or weed control at 62 g/ha,"[7]; 62 g ai/ha, scale 0 to 100 (0 no effect, 100 complete control), read-out: Johnsongrass plant response rating",0%
same,pest or weed control at 125 g/ha,"[7]; 125 g ai/ha, scale 0 to 100 (0 no effect, 100 complete control), read-out: Johnsongrass plant response rating",0%
same,pest or weed control at 250 g/ha,"[7]; 250 g ai/ha, scale 0 to 100, read-out: Plant response rating, Johnsongrass",0%
